Data published in US9695155B2, “Herbicidal substituted pyrimidinyloxy benzene compounds” (E. I. DU PONT DE NEMOURS AND COMPANY, priority 2013, dated 2017).

Key:
pigweed [1] = experiment: Test A postemergence; assay type: in vivo, Amaranthus retroflexus
Procedure, shortened: (§1)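 Compounds in non-phytotoxic solvent with surfactant applied as soil spray preemergence, or postemergence to plants 2-10 cm at one- to two-leaf stage, in loam/sand. After approximately 10 days in greenhouse, injury rated visually versus untreated controls, 0 (no effect) to 100 (complete control).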

johnsongrass [2] = experiment: Test C preemergence; assay type: in vivo, Sorghum halepense; settings: for Johnsongrass plant response rating: preemergence, scale 0 (no effect) to 100 (complete control)
Procedure, shortened: (§2)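 Visual ratings on a 0–100 scale (100 = complete control) were made versus untreated controls after 13–15 greenhouse days. Chemicals in a surfactant-containing non-phytotoxic solvent were applied either preemergence to seeds in loam–sand soil or postemergence to 1- to 4-leaf plants 2–18 cm tall.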

ragweed = experiment: Test C preemergence; assay type: in vivo, Ambrosia elatior; settings: for Ragweed plant response rating: preemergence, scale 0 (no effect) to 100 (complete control)
Procedure, shortened: as §2

corn = experiment: Test C postemergence; assay type: in vivo, Zea mays
From the text: (§3) Seeds of plant species selected from blackgrass (Alopecurus myosuroides), Italian ryegrass (Lolium multiflorum), wheat, winter (winter wheat, Triticum aestivum), galium (catchweed bedstraw, Galium aparine), corn (Zea mays), large (Lg) crabgrass (Digitaria sanguinalis), giant foxtail (Setaria faberii), johnsongrass (Sorghum halepense), lambsquarters (Chenopodium album), morningglory (Ipomoea coccinea), yellow nutsedge (Cyperus esculentus), pigweed (Amaranthus retroflexus), ragweed (common ragweed, Ambrosia elatior), soybean (Glycine max), barnyardgrass (Echinochloa crus-galli), oilseed rape (Brassica napus), waterhemp (common waterhemp, Amaranthus rudis), kochia (Kochia scoparia), wild oat (Avena fatua), surinam grass (Brachiaria decumbens), foxtail, green (green foxtail, Setaria viridis), goosegrass (Eleusine indica), bromegrass, downy (downy bromegrass, Bromus tectorum), nightshade (eastern black nightshade, Solanum ptycanthum), cocklebur (common cocklebur, Xanthium strumarium), cupgrass, woolly (woolly cupgrass, Eriochloa villosa), bermudagrass (Cynodon dactylon), sunflower, (common oilseed sunflower, Helianthus annuus), Russian thistle (Salsola kali), and velvetleaf (Abutilon theophrasti) were planted into a blend of loam soil and sand and treated preemergence with test chemicals formulated in a non-phytotoxic solvent mixture which included a surfactant.
(§4) At the same time, plants selected from these crop and weed species and also barley, winter (winter barley, Hordeum vulgare), windgrass (Apera spica-venti), chickweed (common chickweed, Stellaria media), deadnettle (henbit deadnettle, Lamium amplexicaule), and canarygrass (littleseed canarygrass, Phalaris minor) were planted in pots containing Redi-Earth® planting medium (Scotts Company, 14111 Scottslawn Road, Marysville, Ohio 43041) comprising spaghnum peat moss, vermiculite, wetting agent and starter nutrients and treated with postemergence applications of test chemicals formulated in the same manner. Plants ranged in height from 2 to 18 cm (1- to 4-leaf stage) for postemergence treatments. Treated plants and controls were maintained in a greenhouse for 13 to 15 days, after which time all species were compared to controls and visually evaluated. Plant response ratings, summarized in Table C, are based on a scale of 0 to 100 where 0 is no effect and 100 is complete control. A dash (-) response means no test result.

blackgrass = experiment: Test C preemergence; assay type: in vivo, Alopecurus myosuroides; settings: for Blackgrass plant response rating: preemergence, scale 0 (no effect) to 100 (complete control)
Procedure, shortened: as §2

pigweed [3] = experiment: Test A preemergence; assay type: in vivo, Amaranthus retroflexus
Procedure, shortened: as §1

giant foxtail [4] = experiment: Test A postemergence; assay type: in vivo, Setaria faberii
Procedure, shortened: as §1

large (Lg) crabgrass [5] = experiment: Test A postemergence; assay type: in vivo, Digitaria sanguinalis
Procedure, shortened: as §1

giant foxtail [6] = experiment: Test C preemergence; assay type: in vivo, Setaria faberii; settings: for Foxtail, Giant plant response rating: preemergence, scale 0 (no effect) to 100 (complete control)
Procedure, shortened: as §2

large (Lg) crabgrass [7] = experiment: Test C postemergence; assay type: in vivo, Digitaria sanguinalis
From the text: as §3, §4

johnsongrass [8] = experiment: Test C postemergence; assay type: in vivo, Sorghum halepense
From the text: as §3, §4

large (Lg) crabgrass [9] = experiment: Test A preemergence; assay type: in vivo, Digitaria sanguinalis
Procedure, shortened: as §1

velvetleaf = experiment: Test C postemergence; assay type: in vivo, Abutilon theophrasti
From the text: as §3, §4

[10] = 125 g ai/ha, 0 to 100 scale where 0 is no effect and 100 is complete control
[11] = 500 g ai/ha, 0 to 100 scale, 0 no effect, 100 complete control
[12] = Preemergence, 31 g ai/ha, scale 0 to 100, 0 no effect, 100 complete control
[13] = Postemergence, 31 g ai/ha, scale 0 to 100 (0 no effect, 100 complete control), 13 to 15 days
[14] = Postemergence, 62 g ai/ha, scale 0 to 100 (0 no effect, 100 complete control)
[15] = 500 g ai/ha, 0 to 100 scale, 0 no effect, 100 complete control, approx. 10 days

## FC(F)(F)c1cnn(-c2ccccc2Oc2ncc(Cl)cn2)c1 [Compound 16]
Pigweed [1]; [10]
  Plant response rating, Pigweed: 100
Pigweed [1]; [11]
  Plant response rating, Pigweed: 100
Johnsongrass [2]; 62 g ai/ha
  Johnsongrass plant response rating: 85
Johnsongrass [2]; 125 g ai/ha
  Johnsongrass plant response rating: 100
Johnsongrass [2]; 250 g ai/ha
  Johnsongrass plant response rating: 100
Johnsongrass [2]; [12]
  Plant response rating, Johnsongrass: 0
ragweed; 62 g ai/ha
  Ragweed plant response rating: 25
ragweed; 125 g ai/ha
  Ragweed plant response rating: 55
ragweed; 250 g ai/ha
  Ragweed plant response rating: 60
ragweed; [12]
  Plant response rating, Ragweed: 0
corn; 125 g ai/ha, postemergence
  Plant response rating (0 to 100), Corn: 10
corn; 250 g ai/ha, postemergence
  Plant response rating (0 to 100), Corn: 20
corn; [13]
  Plant response rating, Corn: 5
corn; [14]
  Plant response rating, Corn: 5
blackgrass; 62 g ai/ha
  Blackgrass plant response rating: 90
blackgrass; 125 g ai/ha
  Blackgrass plant response rating: 90
blackgrass; 250 g ai/ha
  Blackgrass plant response rating: 90
blackgrass; [12]
  Plant response rating, Blackgrass: 85
Pigweed [3]; [10]
  Pigweed plant response rating: 100
Pigweed [3]; [15]
  Pigweed plant response rating: 100
Giant foxtail [4]; [10]
  Plant response rating, Foxtail, Giant: 100
Giant foxtail [4]; [11]
  Plant response rating, Foxtail, Giant: 100
Large (Lg) crabgrass [5]; [10]
  Plant response rating, Crabgrass, Large: 80
Large (Lg) crabgrass [5]; [11]
  Plant response rating, Crabgrass, Large: 100
Giant foxtail [6]; 62 g ai/ha
  Foxtail, Giant plant response rating: 98
Giant foxtail [6]; 125 g ai/ha
  Foxtail, Giant plant response rating: 100
Giant foxtail [6]; 250 g ai/ha
  Foxtail, Giant plant response rating: 100
Giant foxtail [6]; [12]
  Plant response rating, Foxtail, Giant: 95
Large (Lg) crabgrass [7]; 125 g ai/ha, postemergence
  Plant response rating (0 to 100), Crabgrass, Large: 30
Large (Lg) crabgrass [7]; 250 g ai/ha, postemergence
  Plant response rating (0 to 100), Crabgrass, Large: 85
Large (Lg) crabgrass [7]; [13]
  Plant response rating, Crabgrass, Large: 10
Large (Lg) crabgrass [7]; [14]
  Plant response rating, Crabgrass, Large: 20
Johnsongrass [8]; 125 g ai/ha, postemergence
  Plant response rating (0 to 100), Johnsongrass: 10
Johnsongrass [8]; 250 g ai/ha, postemergence
  Plant response rating (0 to 100), Johnsongrass: 10
Johnsongrass [8]; [13]
  Plant response rating, Johnsongrass: 0
Johnsongrass [8]; [14]
  Plant response rating, Johnsongrass: 5
Large (Lg) crabgrass [9]; [10]
  Crabgrass, Large plant response rating: 100
Large (Lg) crabgrass [9]; [15]
  Crabgrass, Large plant response rating: 100
velvetleaf; 125 g ai/ha, postemergence
  Plant response rating (0 to 100), Velvetleaf: 75
velvetleaf; 250 g ai/ha, postemergence
  Plant response rating (0 to 100), Velvetleaf: 75
velvetleaf; [13]
  Plant response rating, Velvetleaf: 60

## Fc1cnc(Oc2ccccc2-n2cc(Br)cn2)nc1 [Compound 10, 2-[2-(4-bromo-1H-pyrazol-1-yl)phenoxy]-5-fluoropyrimidine]
Pigweed [1]; Amaranthus retroflexus, post-emergence, 125 g ai/ha, 0 to 100 scale where 0 is no effect and 100 is complete control, read-out: Plant response rating, Pigweed
  pest or weed control at 125 g/ha: 100%
Pigweed [1]; Amaranthus retroflexus, post-emergence, 240 h, 500 g ai/ha, 0 to 100 scale, 0 no effect, 100 complete control, read-out: Plant response rating Pigweed
  pest or weed control at 500 g/ha: 100%
corn; Zea mays, post-emergence, 125 g ai/ha, postemergence, read-out: Plant response rating (0 to 100), Corn
  plant injury at 125 g/ha: 5%
corn; Zea mays, post-emergence, 250 g ai/ha, postemergence, read-out: Plant response rating (0 to 100), Corn
  plant injury at 250 g/ha: 20%
corn; Zea mays, post-emergence, Postemergence, 31 g ai/ha, scale 0 to 100 (0 no effect, 100 complete control), 13 to 15 days
  Corn plant response rating (crop injury, 0 = no effect, 100 = complete kill) at 31 g/ha: 5%
corn; Zea mays, post-emergence, Postemergence, 62 g ai/ha, scale 0 to 100 (0 no effect, 100 complete control)
  Corn plant response rating (crop injury, 0 = no effect, 100 = complete kill) at 62 g/ha: 5%
Pigweed [3]; Amaranthus retroflexus, pre-emergence, 240 h, 125 g ai/ha, 0 to 100 scale where 0 is no effect and 100 is complete control, read-out: Pigweed plant response rating
  pest or weed control at 125 g/ha: 100%
Pigweed [3]; Amaranthus retroflexus, pre-emergence, 240 h, 500 g ai/ha, 0 to 100 scale, 0 no effect, 100 complete control, approx. 10 days, read-out: Pigweed plant response rating
  pest or weed control at 500 g/ha: 100%
Giant foxtail [4]; Setaria faberi, post-emergence, 240 h, 125 g ai/ha, 0 to 100 scale where 0 is no effect and 100 is complete control, read-out: Plant response rating, Foxtail, Giant
  pest or weed control at 125 g/ha: 50%
Giant foxtail [4]; Setaria faberi, post-emergence, 240 h, 500 g ai/ha, 0 to 100 scale, 0 no effect, 100 complete control, read-out: Plant response rating Foxtail, Giant
  pest or weed control at 500 g/ha: 90%
Large (Lg) crabgrass [5]; Digitaria sanguinalis, post-emergence, 240 h, 125 g ai/ha, 0 to 100 scale where 0 is no effect and 100 is complete control, read-out: Plant response rating, Crabgrass, Large
  pest or weed control at 125 g/ha: 50%
Large (Lg) crabgrass [5]; Digitaria sanguinalis, post-emergence, 240 h, 500 g ai/ha, 0 to 100 scale, 0 no effect, 100 complete control, read-out: Plant response rating Crabgrass, Large
  pest or weed control at 500 g/ha: 80%
Large (Lg) crabgrass [7]; Digitaria sanguinalis, post-emergence, 125 g ai/ha, postemergence, read-out: Plant response rating (0 to 100), Crabgrass, Large
  pest or weed control at 125 g/ha: 5%
Large (Lg) crabgrass [7]; Digitaria sanguinalis, post-emergence, 250 g ai/ha, postemergence, read-out: Plant response rating (0 to 100), Crabgrass, Large
  pest or weed control at 250 g/ha: 35%
Large (Lg) crabgrass [7]; Digitaria sanguinalis, post-emergence, Postemergence, 31 g ai/ha, scale 0 to 100 (0 no effect, 100 complete control), 13 to 15 days, read-out: Plant response rating, Crabgrass, Large
  pest or weed control at 31 g/ha: 5%
Large (Lg) crabgrass [7]; Digitaria sanguinalis, post-emergence, Postemergence, 62 g ai/ha, scale 0 to 100 (0 no effect, 100 complete control), read-out: Plant response rating, Crabgrass, Large
  pest or weed control at 62 g/ha: 5%
Johnsongrass [8]; Sorghum halepense, post-emergence, 125 g ai/ha, postemergence, read-out: Plant response rating (0 to 100), Johnsongrass
  pest or weed control at 125 g/ha: 5%
Johnsongrass [8]; Sorghum halepense, post-emergence, 250 g ai/ha, postemergence, read-out: Plant response rating (0 to 100), Johnsongrass
  pest or weed control at 250 g/ha: 10%
Johnsongrass [8]; Sorghum halepense, post-emergence, Postemergence, 31 g ai/ha, scale 0 to 100 (0 no effect, 100 complete control), 13 to 15 days, read-out: Plant response rating, Johnsongrass
  pest or weed control at 31 g/ha: 5%
Large (Lg) crabgrass [9]; Digitaria sanguinalis, pre-emergence, 240 h, 125 g ai/ha, 0 to 100 scale where 0 is no effect and 100 is complete control, read-out: Crabgrass, Large plant response rating
  pest or weed control at 125 g/ha: 100%
Large (Lg) crabgrass [9]; Digitaria sanguinalis, pre-emergence, 240 h, 500 g ai/ha, 0 to 100 scale, 0 no effect, 100 complete control, approx. 10 days, read-out: Crabgrass, Large plant response rating
  pest or weed control at 500 g/ha: 100%
velvetleaf; Abutilon theophrasti, post-emergence, 125 g ai/ha, postemergence, read-out: Plant response rating (0 to 100), Velvetleaf
  pest or weed control at 125 g/ha: 70%
velvetleaf; Abutilon theophrasti, post-emergence, 250 g ai/ha, postemergence, read-out: Plant response rating (0 to 100), Velvetleaf
  pest or weed control at 250 g/ha: 90%
velvetleaf; Abutilon theophrasti, post-emergence, Postemergence, 31 g ai/ha, scale 0 to 100 (0 no effect, 100 complete control), 13 to 15 days, read-out: Plant response rating, Velvetleaf
  pest or weed control at 31 g/ha: 50%
velvetleaf; Abutilon theophrasti, post-emergence, Postemergence, 62 g ai/ha, scale 0 to 100 (0 no effect, 100 complete control), read-out: Plant response rating, Velvetleaf
  pest or weed control at 62 g/ha: 70%
